Assay results taken from PubChem BioAssay AID1259418 (Broad Institute, 2018).
Values joined by “and” are separate entries in the source; they are usually repeats but may differ in a detail not shown here. Equal values may be shown once. Records with an inconclusive call do not appear. Active and inactive are the calls of the source.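 Rule for the calls: active = fitted half-maximal concentration of signal decrease at or below twice the sample's top tested concentration; inconclusive = flat curve between -70 and -30 percent, or poor fit; inactive = flat within 30 percent, signal rise, or potency above limit.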

Biological target: T. gondii ME49Luc in IFN-y HeLa, luciferase, 72 h
Assay: T. gondii growth inhibition with IFN-gamma, dose response, cell-based, ME49Luc, HeLa, luciferase, 72 h (AID 1259418)

SMILES | AC50
C1=CC[C@H]2CN(c3ncnc4[nH]ccc34)C[C@H]2C1 | 13.1 µM
C[C@H](CO)N1C[C@H](C)[C@H](CN(C)C(=O)c2cc(Cl)cc(Cl)c2)OCc2ccccc2-c2c(n(C)c3ccccc23)C1=O | 9.22 µM
Cc1ccc(S(=O)(=O)N2CSC[C@@H]2C(=O)NCCc2csc(-c3ccccc3)n2)cc1 | 12.9 µM
O=C(NC1CCCC1)N1CC(=O)N2[C@H](CO)[C@H](c3ccc(C4=CCCCC4)cc3)[C@@H]2C1 | 35.3 µM
CC(C)n1c(C(=O)N2CCN(c3ccncc3)CC2)cc2c1c1ccccc1n2C | 19.9 µM
N#C[C@H]1[C@@H](c2ccc(-c3cccnc3)cc2)[C@@H](CO)N1C(=O)Nc1ccc(F)cc1 | 12.7 µM
N#Cc1ccc(-c2ccc([C@@H]3[C@@H](CO)N4C(=O)CNC[C@H]34)cc2)cc1 | 11.8 µM
COc1ccc(-c2nc(NCCCN3CCN(c4ccccc4)CC3)c3ccccc3n2)cc1 | 29.8 µM
C/C=C/c1ccc([C@H]2[C@@H](CO)N3CCCCN(S(=O)(=O)c4ccc(OC)cc4)C[C@@H]23)cc1 | 18.4 µM
COc1ccc(-c2nc(Nc3ccc(CN4CCC(C)CC4)cc3)c3ccccc3n2)cc1 | 9.71 µM and 14.6 µM
Fc1cccc(CN2C[C@@H]3N[C@H](C2)C3c2ccc(/C=C/c3ccccc3)cc2)c1 (stereo not given in full) | 12.1 µM and 17.5 µM
CCOc1ccc(-c2nc(CN(c3ccccc3)S(=O)(=O)c3cccs3)c(C)o2)cc1 | 15.2 µM
COCCCNc1nc(-c2ccc(OC)cc2)nc2ccccc12 | 20 µM
O=C(CCc1ccccc1)N1CCC2(CC1)Nc1ccc(Cl)cc1-n1cccc12 | 27.4 µM
CCCN1CCN(CCCNc2nc(-c3ccc(OC)cc3)nc3ccccc23)CC1 | 21.9 µM
Cc1ccc(-c2cc(C(F)(F)F)nn2-c2ccc(S(N)(=O)=O)cc2)cc1 | 22.2 µM
CN1C(=O)c2cc(NC(=O)Cc3cccs3)ccc2OC[C@H]2O[C@@H](CC(=O)NCc3ccc(-c4ccccc4)cc3)CC[C@@H]21 | 12.8 µM
CC(C)Cc1ccc(S(=O)(=O)N2CCC3(CC2)NCCN=C3NC2CCCC2)cc1 | 12.5 µM
COc1cccc(N(Cc2nc(-c3cccc(C)c3)oc2C)S(=O)(=O)c2ccccc2)c1 | 8.5 µM
CCCN1CCc2nc(SCc3nc(-c4ccccc4OC)oc3C)[nH]c(=O)c2C1 | > 39 µM (inactive)
O=C(NCCc1csc(-c2ccccc2)n1)C1CCN(S(=O)(=O)c2ccc(Cl)cc2)CC1 | 14.6 µM
Cc1ccccc1CN1C[C@@H]2c3nc(N4CCCC(C)C4)ncc3CS(=O)(=O)[C@H]2C1 (stereo not given in full) | 24.5 µM and 4.74 µM
N#Cc1ccc(-c2ccc(C3[C@@H]4CN(S(=O)(=O)c5ccc(F)cc5)C[C@H]3N4)cc2)cc1 (stereo not given in full) | 12.1 µM and 13.8 µM
CC(C)CC#Cc1ccc([C@@H]2[C@@H](CO)N3CCCCN(C(=O)Nc4ccccc4)C[C@@H]23)cc1 | 22.5 µM and 15.4 µM

SMILES | AC50
CN(C)CCNC(=O)c1c2c(NCc3cccnc3)ncnc2n2ccccc12 | 32.4 µM
CC(=O)NCc1nnn2c1CN(c1ncccn1)CCC2 | 10.9 µM
O=S(=O)(c1ccc(Cl)s1)N1CCC2(CC1)NCCN=C2NCc1ccc2c(c1)OCO2 | 34.8 µM
COc1ccc(N2CC(NC(=O)C(=O)c3c[nH]c4ccccc34)CC2=O)cc1 (stereo not given) | 28.3 µM
COc1cccc(S(=O)(=O)N2CCCCN3[C@H](CO)[C@H](c4ccc(C#CCC(C)C)cc4)[C@@H]3C2)c1 | 13.6 µM and 2.35 µM
COc1ccc(S(=O)(=O)N(Cc2nc(-c3ccccc3OC)oc2C)c2ccccc2OC)cc1 | 13.7 µM
COCC(=O)N1[C@H](C#N)[C@H](c2ccc(C#Cc3ccccc3F)cc2)[C@@H]1CO | > 39 µM (inactive)
O=C(CC1Nc2c3ccccc3nc(=S)n2C1=O)N1CCN(c2ccccc2F)CC1 (stereo not given) | 29.7 µM
CCc1ccc(S(=O)(=O)N2CCC3(CC2)NCCN=C3NCc2ccc(C)cc2)cc1 | 8.88 µM
O=C(Cc1cccnc1)N1CC(=O)N2[C@H](CO)[C@H](c3ccc(C#CC4CCCCC4)cc3)[C@H]2C1 | 19.4 µM
C=CC[C@@H]1CC=C[C@@H](C)N1C(=O)CCn1c(C)cc(C)nc1=O | 26.4 µM
CC(C)NC(=O)N1CC(=O)N2[C@H](C1)[C@@H](c1ccc(/C=C/c3ccccc3)cc1)[C@@H]2CO | 10.4 µM
CCN(CCCNC(=O)CC1Nc2c3ccccc3nc(=S)n2C1=O)c1ccccc1 (stereo not given) | > 39 µM (inactive)
O=C1CCc2cc(NC(=O)c3cccc(C(F)(F)F)c3)ccc2N1 | 16.8 µM
C[C@H]1CN([C@@H](C)CO)C(=O)c2cccc(NS(=O)(=O)c3ccc(F)cc3)c2O[C@H]1CN(C)Cc1ccc(Cl)c(Cl)c1 | 19.2 µM and 11.7 µM
COc1cccc(-c2nc3c(s2)CN(S(=O)(=O)c2cc(C)ccc2C)CC3)c1 | 6.71 µM and 7.85 µM
Cc1ccc(-c2nc(CN3CCN(C(=O)NCCc4ccccc4)CC3)c(C)o2)cc1 | > 39 µM (inactive)
Cc1ccc(CSC2=Nc3ccccc3C3=NC(CCC(=O)NCc4cccs4)C(=O)N23)cc1 (stereo not given) | 17.5 µM
CC(C)(C)OC(=O)Nc1cc(-c2cn[nH]c2C2CCCN(C(=O)OC(C)(C)C)C2)ccn1 (stereo not given) | 10.1 µM
O=S1(=O)c2ccccc2OCC2(CCN(Cc3ccc(F)cc3)CC2)CN1CC1CC1 | 26.6 µM
COc1ccc(N(Cc2nc(-c3ccccc3OC)oc2C)S(=O)(=O)c2ccc(C)cc2)cc1 | 19.3 µM
Cc1sc2ncnc(Oc3ccc(OCc4ccccc4)cc3)c2c1C | 7.63 µM and 8.8 µM
Cc1ccccc1S(=O)(=O)N1C[C@@H]2N[C@H](C1)C2c1ccc(/C=C/c2ccccc2)cc1 (stereo not given in full) | 9.34 µM
OC[C@H]1Nc2ccc(C#Cc3ccc(F)cc3)cc2[C@H]2[C@@H]1CCN2Cc1ccc2c(c1)OCO2 | 20 µM

SMILES | AC50
Cc1ccc(OCC(=O)Nc2ccc(-c3nc(-c4ccccc4)co3)cc2)cc1 | > 39 µM (inactive)
COc1cccc(-c2ccc3c(c2)[C@H]2[C@H](CCN2S(=O)(=O)c2ccccc2F)[C@@H](CO)N3)c1 | 25 µM and 6.64 µM
COc1ccc(-c2nc(N(CCCN3CCOCC3)Cc3ccco3)c3ccccc3n2)cc1 | 9.51 µM
COC[C@]12CCC[C@@H]1CN(S(=O)(=O)c1cccc(OC)c1)C2 | 36.2 µM
Cc1ccc(N2CC(NC(=O)C(=O)c3c[nH]c4ccccc34)CC2=O)cc1 (stereo not given) | > 39 µM (inactive)
CC(C)(C)c1ccc(CSC2=Nc3ccccc3C3=NC(CC(=O)NCc4ccco4)C(=O)N23)cc1 (stereo not given) | 27.4 µM
COc1cccc(-c2nc(C)c(-c3ccc(SCc4ccc(F)cc4)nn3)s2)c1 | 6.5 µM
COc1ccccc1N1CCN(C(=O)CC2Nc3c4ccccc4nc(=S)n3C2=O)CC1 (stereo not given) | 20.3 µM
O=C(Nc1cccc(F)c1)N1CCCCN2[C@H](CO)[C@@H](c3ccc(C#Cc4cccnc4)cc3)[C@@H]2C1 | 16 µM
COc1cccc(CN2C[C@@H]3N[C@H](C2)C3c2ccc(-c3ccccc3C)cc2)c1 (stereo not given in full) | 19 µM and 12.1 µM
COc1cc(OC)cc(C(=O)Nc2ccc(-c3nc(-c4ccc(C)cc4C)co3)cc2)c1 | 29.7 µM
CCCNC(=O)N1CCN(Cc2nc(-c3ccc(C)cc3)oc2C)CC1 | 26.1 µM
O=C(COc1ccc(F)cc1)N1CCC2(CC1)Nc1ccc(Cl)cc1-n1cccc12 | 17 µM
C/C=C/c1ccc(C2[C@H]3CNC[C@@H]2N3C(=O)NC2CCCCC2)cc1 (stereo not given in full) | 9.23 µM and 7.74 µM
OC[C@@H]1Nc2ccc(-c3cccc(F)c3)cc2[C@@H]2[C@H]1CCN2Cc1ccc(F)cc1 | 18.5 µM
Cc1ccc(S(=O)(=O)N2CCC3(CC2)NCCN=C3NCc2ccc(C(F)(F)F)cc2)c(C)c1 | 9.08 µM
COc1ccc(NC(=O)CN2CCC3(CC2)N=C(c2cccc(Cl)c2)C(=O)N3)cc1 | 18.2 µM
CCOc1ccccc1N(Cc1nc(-c2ccc(OC)cc2)oc1C)S(=O)(=O)c1cccs1 | 7.45 µM
Fc1cccc(CSc2nc(NC3CCCCC3)c3ccccc3n2)c1 | > 39 µM (inactive)
Cc1ccsc1C(=O)N1CCc2nc(N3CCOCC3)nc(NC(C)C)c2C1 | > 39 µM (inactive)
CCOc1ccc(-c2nc(CN(c3cccc(OC)c3)S(=O)(=O)c3ccccc3C)c(C)o2)cc1 | 34.5 µM
CSc1cccc(NC(=O)CN2CCC3(CC2)N=C(c2cccc(Cl)c2)C(=O)N3)c1 | 23.8 µM
CCCCNC(=O)CC1N=C2c3ccccc3N=C(SCc3ccc(C)cc3)N2C1=O (stereo not given) | 10.4 µM
CCC(=O)N1CC[C@@H]2[C@H]1c1cc(C#Cc3ccccc3F)ccc1N[C@@H]2CO | 29.2 µM

SMILES | AC50
COc1ccccc1C(=O)N1CCC2(CC1)Nc1ccc(Cl)cc1-n1cccc12 | 33.9 µM
CCc1nc(OCC(=O)N(C)c2ccccc2)c2ccccc2n1 | 24.4 µM
Cc1ccc(CSC2=Nc3ccccc3C3=NC(CC(=O)NCc4ccc5c(c4)OCO5)C(=O)N23)cc1 (stereo not given) | > 39 µM (inactive)
O=C(c1cnccn1)N1CC(=O)N2[C@H](CO)[C@@H](c3ccc(/C=C/c4ccccc4)cc3)[C@@H]2C1 | 21.7 µM and 13.2 µM
Cc1ccccc1-c1ccc(C2[C@@H]3CN(C(=O)c4ccc(F)cc4)C[C@H]2N3)cc1 (stereo not given in full) | 19 µM
CC(C)c1cc(C2CCCN2Cc2c[nH]c3ccccc23)on1 (stereo not given) | 7.79 µM and 14 µM
CCc1ccccc1S(=O)(=O)N1CCc2nc(-c3ccc(OC)cc3)sc2C1 | 7.8 µM and 14.9 µM
O=C(CCC1N=C2c3ccccc3N=C(SCc3cccc(Cl)c3)N2C1=O)NCc1cccs1 (stereo not given) | 5.48 µM
Clc1ccccc1-c1nc(NCCCN2CCN(c3ccccc3)CC2)c2ccccc2n1 | > 39 µM (inactive)
Cc1ccc2[nH]c(C(=O)NCc3ccncc3)c(NC(=O)c3ccc(F)cc3)c2c1 | 1.99 µM
CCN1CCCC1CNC(=O)C1CCN(Cc2cc3ccccc3n2Cc2ccc(F)cc2)CC1 (stereo not given) | 21.2 µM
CC(C)NC(=O)N1CC(=O)N2[C@H](CO)[C@@H](c3ccc(/C=C/c4ccccc4)cc3)[C@H]2C1 | 26.5 µM and 8.87 µM
CN(C)C(=O)COCc1cncc2c1CCN(c1ccccn1)C2 | 6.26 µM
N#C[C@H]1[C@H](c2ccc(-c3cccc(F)c3)cc2)[C@@H](CO)N1C(=O)NC1CCCC1 | 16.7 µM
CCc1ccc(S(=O)(=O)N2CCC3(CC2)NCCN=C3NCc2ccc(F)cc2)cc1 | 6.64 µM
N#Cc1cccc(-c2ccc(C3[C@@H]4CN(C(=O)c5ccc6c(c5)OCO6)C[C@H]3N4)cc2)c1 (stereo not given in full) | 14.5 µM and 9.62 µM
Cc1cccc(CN2CCC3(CC2)N=C(c2cccc(C)c2)C(=O)N3)c1 | > 20 µM (inactive)
O=C(NCCc1csc(-c2ccccc2)n1)[C@H]1CCCN1S(=O)(=O)c1ccc(Cl)s1 | 12.9 µM
Cc1ccc(-c2nc(CN3CCN(C(=O)Nc4ccc(F)cc4)CC3)c(C)o2)cc1 | 33.3 µM
CCCNc1nc(-c2ccccc2Cl)nc2ccccc12 | 23.9 µM
CCc1nc(OCC(=O)NCc2ccc(SC)cc2)c2ccccc2n1 | > 39 µM (inactive)
COc1ccc(-c2nc(NCCCN3CCN(C)CC3)c3ccccc3n2)cc1 | 14.4 µM
Fc1cccc(CSc2nc(NCc3ccc(Cl)cc3)c3ccccc3n2)c1 | 14 µM
